Measurements published in PMC9297664, “Cationic peptide carriers enable long-term delivery of insulin-like growth factor-1 to suppress osteoarthritis-induced matrix degradation” (Arthritis Research & Therapy, 2022).
Entries after “also recorded” stand apart in the source; their conditions may differ.

Assays:
[1] = system: IL-1α treated cartilage explants; test: GAG loss from cartilage (DMMB), IL-1α-challenged explant culture post-traumatic OA model; format: cell-based, bovine; conditions: IL-1α 2 ng/mL
Protocol: (§1) Media was collected and changed every 2 days and IL-1α was replenished with each media change. […] IL-1α is chosen for this in-vitro post-traumatic (PTOA) model as it is elevated during the inflammatory phase following an injury and causes degradation of aggrecans, collagens, inhibits proteoglycan synthesis, and alters chondrocyte viability. 2 ng/mL concentration was chosen as it represents a moderately aggressive cytokine treatment.
After 16 days of culture, the cartilage explants were weighed and digested using Proteinase-K solution in Tris buffer at pH 8. The cumulative GAG released to the media and the residual GAG content in the digested tissue explants was measured using DMMB assay. The GAG content was expressed as a percentage of the total GAG content (in media + residual GAG in the digested explant).

[2] = system: chondrocytes in IL-1α treated cartilage explants; test: Chondrocyte viability in cartilage (FDA/PI live-dead staining); format: cell-based, bovine; conditions: IL-1α 2 ng/mL, days 8 and 16
Protocol: as §1
On days 8 and 16 of culture, 100 μm thick slices were cut from the center of cartilage disks as described before. Cartilage slices were stained with FDA (4 mg/ml in PBS) and PI ([…] in PBS) for 5 min. FDA stained viable cells green and PI stained the non-viable cells red. Slices were washed with PBS and imaged using a fluorescence microscope (Nikon Eclipse TS2R) at 4× objective. The viable and non-viable cell images were overlaid using ImageJ.

endplate chondrocytes = conditions: IGF-1 administration; cited from earlier work
[3] = system: IL-1 and TNF-α challenged cartilage; conditions: cited from earlier work
Description: Media was collected and changed every 2 days and IL-1α was replenished with each media change.

[4] = design: method as in 3 sources, ref 37 = [37]; PMID 24470361; doi:10.1002/art.38357; 37. Loffredo FS Pancoast JR Cai L Vannelli T Dong JZ Lee RT Targeted delivery to cartilage is critical for in vivo efficacy of insulin-like growth factor 1 in a rat model of osteoarthritis Arthritis R ||| ref 42 = [42]; PMID 20722014; doi:10.1002/art.27709; 42. Miller RE Grodzinsky AJ Cummings K Plaas AHK Cole AA Lee RT Intraarticular injection of heparin-binding insulin-like growth factor 1 sustains delivery of insulin-like growth factor 1 to cartilage ||| ref 43 = [43]; PMID 30487252; doi:10.1126/scitranslmed.aat8800; 43. Geiger BC Wang S Padera RF Grodzinsky AJ Hammond PT Cartilage-penetrating nanocarriers improve delivery and efficacy of growth factor treatment of osteoarthritis Sci Transl Med 2018 10 eaat8800 10; conditions: cited from earlier work; for Detection in cartilage samples: rat cartilage, 6 days post-IA injection
[5] = Depth of penetration, 1-D transport chamber, confocal imaging, absorption then desorption; format: in vitro ADME, bovine
Protocol: The chamber was placed in a covered petri dish with DI water inside an incubator at 37 °C under gentle shaking. After 24 h, a 100 μm slice was cut from the center of the explant and imaged using a confocal microscope (Zeiss LSM 800). Cy5 (red channel) was excited 640 nm laser and FITC (green channel) was excited using a 488 nm laser. Z-stacks of images from both channels were obtained and maximum intensity along the z-axis was projected. The intensity across the thickness to represent the penetration concentration profile was plotted along a straight line from the superficial to deep zone using FIJI.

[6] = system: IL-1α treated cartilage explants; test: Nitrite release from cartilage to medium (Griess assay); format: cell-based, bovine; conditions: IL-1α 2 ng/mL; for Nitrite production: days 2, 8 and 16
Protocol: as §1
Nitrite content was measured using the Griess assay as a marker of nitric oxide (NO) release from cartilage into the medium. Equal volumes of Griess reagent and culture media collected every two days were mixed and incubated at room temperature for 15 min, and absorbance at 540 nm was measured using a microplate reader (Synergy H1, Biotek). Sodium nitrite solution in DMEM was used as a standard to convert absorbance readings to nitrite content in the sample medium.

[7] = system: IL-1α treated cartilage explants; test: Cellular metabolism in cartilage explants (AlamarBlue); format: cell-based, bovine; conditions: IL-1α 2 ng/mL, days 8 and 16
Protocol: as §1
On days 8 and 16 of culture, cellular metabolism in cartilage explants was determined by measuring the metabolic oxidation activity by using AlamarBlue assay. Briefly, cartilage explants were individually incubated with media containing 1× resazurin sodium salt for 3 h in the dark at 37 °C and 5% CO2. Cell metabolic activity was estimated by measuring fluorescence at 530 nm excitation and 590 nm emission wavelengths using a microplate reader (Synergy H1, Biotek).

[8] = system: human OA cartilage explants; design: method as in PMID 18050312; conditions: cited from earlier work
rat knee joints = conditions: post-IA injection in ACL transected (ACLT) rat knee joints, compared to free IGF-1; cited from earlier work
Description: The high negative FCD of cartilage resulting from the negatively charged GAGs provides a unique opportunity to make drug cartilage penetrating using cationic carriers.

[9] = single dose 1000 ng/ml IGF-1 (S), free or as conjugate

IGF-1: Human recombinant insulin-like growth factor-1, ~7.6 kDa pro-anabolic growth factor (PeproTech)
GAG loss to media ([1]; continuous dose 100 ng/ml (C), replenished every 2 days, 16-day culture): keep the GAG loss levels down to control levels | GAG loss to media ([1]; single dose 100 ng/ml (S), first 2 days only, day 2): significantly inhibited GAG loss by day 2 | Cumulative GAG loss to media ([1]; single dose 1000 ng/ml IGF-1 (S), free or as conjugate, 16-day culture): remained ineffective in providing a prolonged effect | Chondrocyte viability ([2]; continuous dose 100 ng/ml (C)): match the response from the untreated control condition | Chondrocyte viability ([2]; single dose 100 ng/ml (S)): not effective in rescuing chondrocyte metabolic activity or viability | Chondrocyte viability [2, 9]: failed to rescue the reduced cell metabolism and viability over the long-term; also recorded: not effective | Decrease of MMP-13 expression (endplate chondrocytes): 50% | Saturating concentration for suppression of GAG loss ([3]; IL-1 and TNF-α challenged cartilage culture models, multiple dosing): 100 ng/mL | Concentration at which the therapeutic effect saturates (suppression of IL-1α-induced catabolic activity) ([3]; similar cartilage explant culture model): 100 ng/mL | Retention in cartilage / joint tissues ([4]; 24 h post-IA injection in rats): no free IGF-1 was detectable in any joint tissues | Retention in cartilage ([4]; 2 days post-IA injection in rat knees): no retention of free IGF-1 was observed in cartilage | Detection in cartilage samples [4]: no trace of free IGF-1 was detectable | Depth of penetration from superficial to deep zone [5]: penetrated through the full thickness of cartilage | Retention in cartilage after desorption [5]: most of the free IGF-1 desorbed out of the cartilage | Time for desorption out of the cartilage [5]: ≤ 24 h | Cumulative nitrite levels ([6]; continuous dose 100 ng/ml (C), 16 days): significantly suppressed the IL-1-induced cumulative nitrite levels | Nitrite production ([6]; single dose 100 ng/ml (S)): suppressed nitrite production only on day 2 | Nitrite production [6, 9]: suppressed nitrite production only on day 2 | Chondrocyte metabolic activity ([7]; continuous dose 100 ng/ml (C)): match the response from the untreated control condition | Chondrocyte metabolic activity ([7]; single dose 100 ng/ml (S)): not effective in rescuing chondrocyte metabolic activity or viability | Chondrocyte metabolic activity [7, 9]: failed to rescue the reduced cell metabolism and viability over the long-term; also recorded: ineffective in rescuing the reduced metabolic rate | Increase of proteoglycan synthesis ([8]; 3 ng/ml IGF-1, milder degree of OA explants (MANKIN score 4)): 1.8 fold | Enhancement of proteoglycan synthesis ([8]; 30 ng/ml IGF-1, advanced OA cartilage explants (MANKIN score 8)): 2.6 fold

PAMAM-IGF-1: IGF-1 carried by polyamidoamine (PAMAM) dendrimer cationic nanoparticles (Gen 6, 58 kDa) [reference compound]
Detection in cartilage samples [4]: detected | Duration of bioavailability of IGF-1 in the knee joint space ([4]; rat knee joint space post-IA injection): 30.4 days | Matrix degradation and osteophyte formation (rat knee joints): significantly suppressed matrix degradation and osteophyte formation
